Measurements from patent US20230374462A1, “METHOD FOR PRODUCING MYOCARDIAL STEM/PROGENITOR CELL AND METHOD FOR SUPPRESSING MYOCARDIAL FIBROSIS” (priority 2020, published 2023).

What was measured:
[1] = test system: primary human cardiomyocytes (HCM); assay: Long-term culture with low-speed imaging of cardiomyocytes in presence of low molecular weight compound; type: cell-based; conditions: for long-term culture (proliferation): HCM, FIG. 1B; for cell morphology of cardiomyocytes: long-term culture, FIG. 1A
Procedure: (§1) The subcultured human cardiomyocytes were seeded at 0.5×10^2 cells/cm^2 on a 35 mm plate (IWAKI) containing: 3 mL of a Vascular Smooth Muscle Cell growth medium containing 3-(6-methyl-2-pyridinyl)-n-phenyl-4-(4-quinolinyl)-1H-pyrazole-1-carbothioamide (A-83-01: A) (final concentration: 1 AM) as a low molecular weight compound TGFβ receptor inhibitor or (1R,4r)-4-((R)-1-aminoethyl)-N-(pyridin-4-yl)cyclohexanecarboxamide (Y-27632: Y) (final concentration: 10 AM) as a ROCK inhibitor, both of the compounds A-83-01 and Y-27632, or free of them: or a Myocyte basal medium. On Day 3, the Vascular Smooth Muscle Cell growth medium containing each low molecular weight compound or the Myocyte basal medium was replaced. Thereafter, the medium was replaced in the same manner every three days.
After the medium replacement, low-speed imaging was performed using a BZ9000 all-in-one fluorescence microscope (KEYENCE). In addition, the individual cells were tracked throughout the imaging period (110 days), and the final number of cells derived from each cell was measured.

[2] = test system: HCM cells; assay: Quantitative RT-PCR of progenitor, maturation and senescence markers; type: cell-based, human; conditions: for number of cell death due to the treatment: concluded from senescence markers
Procedure: as §1
(§2) Total RNA was isolated from each cardiomyocyte 1 month and 2 months after culture in the presence of the test low molecular weight compound using miRNeasy Mini Kit (QIAGEN). Reverse transcription reactions were performed using High-Capacity cDNA Reverse Transcription Kit Lifetechnologies according to manufacturer's guidelines. PCR was performed using the obtained cDNA as a template and a Taqman Probe (ThermoFisher). An expression level of a target gene was standardized with β-actin as an endogenous control.

[3] = test system: PC-100-021 cells; assay: as above; type: cell-based, human; conditions: for number of cell death due to the treatment: concluded from senescence markers
Procedure: as §1, §2

[4] = test system: HCM cells; assay: Western blot of endothelial cell marker (CD31) and muscle cell marker (Troponin T); type: cell-based, human; conditions: FIG. 3B
Text: (§3) FIG. 3 A: Graphs showing mRNA expression of the myocardial progenitor cell markers (GATA4 and VCAM-1), the maturation marker (MYL2), and senescence markers (CDKN1A and CDKN2A) for cardiomyocytes, in the cardiomyocytes treated with the TGFβ receptor inhibitor (A) or the ROCK inhibitor (Y). In each graph, the vertical axis represents the expression amount (Relative mRNA expression) of each mRNA when the expression amount of the cells before culture is 1, and the numerical values on the horizontal axis represent culture periods (day). B: Photographs showing the results of confirming, by Western blot, loss of the expression of an endothelial cell marker (CD31), and expression of a muscle cell marker (Troponin T) and Actin, in primary human cardiomyocytes (HCM) or primary human coronary artery smooth muscle cells (PC-100-021) treated with the TGFβ receptor inhibitor (A) or the ROCK inhibitor (Y). NT indicates an agent-untreated control, and HUVEC indicates a result of using human umbilical vein endothelial cells (CD31-positive as the endothelial cell marker).

[5] = test system: PC-100-021 cells; assay: as above; type: cell-based, human; conditions: FIG. 3B
Text: as §3

[6] = test system: primary human coronary artery smooth muscle cells (PC-100-021); assay: Long-term culture with low-speed imaging in presence of low molecular weight compound; type: cell-based; conditions: FIG. 1C
[7] = 1 and 2 months culture, vs agent untreated group, FIG. 2
[8] = culture periods in days, FIG. 3A

| SMILES | long-term culture (proliferation) [1] | cell morphology of cardiomyocytes [1] | decrease in progenitor cell markers (GATA4 and VCAM-1) mRNA during culture [2, 7] | increase in maturation marker (MYL2) mRNA during culture [2, 7] | expression of senescence markers (CDKN1A and CDKN2A) mRNA ([2]; FIG. 3A) | number of cell death due to the treatment [2] | decrease in progenitor cell markers (GATA4 and VCAM-1) mRNA during culture [2, 8] | increase in maturation marker (MYL2) mRNA during culture [2, 8] | decrease in progenitor cell markers (GATA4 and VCAM-1) mRNA during culture [3, 7] | increase in maturation marker (MYL2) mRNA during culture [3, 7] | expression of senescence markers (CDKN1A and CDKN2A) mRNA ([3]; FIG. 3A) | number of cell death due to the treatment [3] | decrease in progenitor cell markers (GATA4 and VCAM-1) mRNA during culture [3, 8] | increase in maturation marker (MYL2) mRNA during culture [3, 8] | expression of endothelial cell marker (CD31) [4] | expression of muscle cell marker [4] | expression of endothelial cell marker (CD31) [5] | expression of muscle cell marker [5] | long-term culture (proliferation) [6] |
| --- | --- | --- | --- | --- | --- | --- | --- | --- | --- | --- | --- | --- | --- | --- | --- | --- | --- | --- | --- |
| C[C@@H](N)[C@H]1CC[C@H](C(=O)Nc2ccncc2)CC1 [Y-27632, (1R,4r)-4-((R)-1-aminoethyl)-N-(pyridin-4-yl)cyclohexanecarboxamide] | long-term culture was induced | maintained the original cell morphology | suppressed | suppressed | hardly expressed | small | suppressed | suppressed | suppressed | suppressed | hardly expressed | small | suppressed | suppressed | not expressed | expressed | not expressed | expressed |  |
| Cc1cccc(-c2nn(C(=S)Nc3ccccc3)cc2-c2ccnc3ccccc23)n1 [A-83-01, 3-(6-methyl-2-pyridinyl)-n-phenyl-4-(4-quinolinyl)-1H-pyrazole-1-carbothioamide] | long-term culture was induced | maintained the original cell morphology | promoted | promoted | hardly expressed | small |  | promote | promoted | promoted | hardly expressed | small |  | promote | not expressed | expressed | not expressed | expressed | long-term culture was induced |
